Consider two compounds from patent US11351215B2, “Composition for preventing hair loss and stimulating hair-growth” (MOTHER″S PHARMACEUTICAL CO., LTD., priority 2018, dated 2022).

Common to all, as to format: in vivo, mouse
Test [1] has as its system male C57BL/6 mice. Description: Skin tissue pathology test, H&E staining (Example 1-2). Particulars: H&E stained skin tissue after end of experiment. The procedure:
The skin tissue pathology test was conducted by H&E staining using Hematoxylin and Eosin, which are generally used widely. A sample was collected from the skin tissue of the sacrificed animals and the generation of hair follicles and phenomena of hair-growth were identified through fixation, washing, clearing, paraffin infiltration, embedding, microtome cutting, staining and reading processes.
In this study, Anagen_Early (A/e) indicates the state in which hair has just begun to develop and Anagen_late (A/l) and Catagen_early (C/e) indicate that hair-growth is in full swing. Anagen_late and Catagen_early have histologically similar positions of the hair bulb. When considering morphological changes according to tissue sections, it is necessary to consider that it is often unclear to distinguish there between. Nevertheless, the hair follicles in the Anagen_late and Catagen_early stages are generally considered as similar stages of development, and the results are interpreted.

For test [2], the system named is male C57BL/6 mice. Description: Skin tissue pathology test, H&E staining (Example 2-2). Particulars: H&E stained skin tissue, day 12. The procedure:
The skin tissue pathology test was conducted on day 12 by H&E staining using Hematoxylin and Eosin, which are widely used. A sample was collected from the skin tissue of the sacrificed animals and the generation of hair follicles and phenomena of hair-growth were identified through fixation, washing, clearing, paraffin infiltration, embedding, microtome cutting, staining and reading processes.

For test [3], the system named is male C57BL/6 mice. Description: Hair-growth efficacy test in catagen inhibition animal model, visual inspection, Centipeda minima extracts (Example 2-1). The conditions noted are these: Day 5 after 7 days of administration (+12 day); topical 100 μL twice a day; dexamethasone-induced catagen. The text has this:
To proceed with the hair-growth efficacy test in the catagen inhibition animal model of Centipeda minima extract, male C57BL/6 mice (5 weeks of age) were purchased and subjected to acclimation for 1 week and selected animals weighing 20 to 24 g. In the case of an animal in which skin damage occurred during hair removal, or if the skin color was black, the growth period was already in progress, so it was inappropriate for this experiment and was excluded from the experiment.
The test group was divided into a normal group, a negative control group, a test substance-administered group, and a positive control groups 1 and 2. The normal group had three mice, the negative control group had 4 mice, the test substance-administered group had 4 mice, and the positive control group 1 (Tofacitinib) had four mice, and the positive control group 2 (Minoxidil) had four mice. […]
Further, to quantify the results of hair-growth efficacy visual inspection, a black portion (anagen) or a region where hair-growth begins in the entire hair removal site (solvent or test substance, positive control substance application site) was visually observed. […]

The test system of test [4] is male C57BL/6 mice. Description: Hair-growth efficacy test in catagen inhibition animal model, visual inspection with image analysis (Example 1-1). Particulars: values of individual mice. The source says: To proceed with the hair-growth efficacy test in the catagen inhibition animal model of Centipeda minima extract, male C57BL/6 mice (5 weeks of age) were purchased and subjected to acclimation for 1 week and selected animals weighing 16 to 21 g. In the case of an animal in which skin damage occurred during hair removal, or if the skin color was black, the growth period was already in progress, so it was inappropriate for this experiment and was excluded from the experiment.
The test group was divided into a normal group, a negative control group, a test substance-administered group, and a positive control groups 1 and 2. Each of the normal group and the negative control group had 1 mouse, the test substance-administered group had 3 mice, and the positive control group 1 had two mice, and the positive control group 2 had one mouse. […]
Further, in order to quantify the results of hair-growth efficacy visual inspection, image analysis was performed on the entire epilation site (solvent or test substance, positive control substance application site) that is black (anagen) or a site where hair-growth begins. […] The result was quantified in %. […]

“And” between values parts separate entries of the source, which are not always exact repeats. Equal entries are not always repeated.

In the case of “6-amino-1,2-dihydro-1-hydroxy-2-imino-4-phenoxypyrimidine [Minoxidil]”, the “hair follicle generation and hair-growth efficacy (skin histology, FIG. 5)” value in the test with male C57BL/6 mice [1] is “only minimal hair follicle generation and hair-growth efficacy degree”. In addition, in the test with male C57BL/6 mice [2], the “hair follicle generation and hair-growth efficacy (skin histology, FIG. 9)” value is “only minimal hair follicle generation and hair-growth efficacy degree”. Further, in the test on male C57BL/6 mice [3], the “Hair-growth efficacy (%)” value is 45%. For the same compound, the “hair-growth efficacy (image analysis of epilation site)” value in the test with male C57BL/6 mice [4] (Day 17 after administration, 0.1% dexamethasone to maintain catagen) was 6.1% and 21.2%. For the same compound, the “tendency to migrate to anagen (black/hair-growth area of epilation site, image analysis)” value in the test on male C57BL/6 mice [4] (on 3 days of administration, topical 100 μL twice a day, dexamethasone-induced catagen) is 0.1% and 0.3%.
For `C[C@@H]1CCN(C(=O)CC#N)C[C@@H]1N(C)c1ncnc2[nH]ccc12` [Tofacitinib], in the test with male C57BL/6 mice [2], the “hair follicle generation and hair-growth efficacy (skin histology, FIG. 9)” value was “only minimal hair follicle generation and hair-growth efficacy degree”. Further, the “Hair-growth efficacy (%)” value in the test on male C57BL/6 mice [3] was 25%.
